Measured values from patent US6420563B1, “Small molecule modulators of G protein-coupled receptor six” (Arena Pharmaceuticals, Inc., priority 1998, dated 2002).
Like-named read-outs stand apart in the source and are kept apart here.

Tests used:
GPR6:Gsα-Fusion Protein = target: T1, GPR6:Gsα-Fusion Protein (Homo sapiens, UniProt P46095); experiment: [35S]GTPγS membrane binding assay (Example 4A); type: biochemical
T1 construct: expressed in transfected cells
Method: The assay plates were then centrifuged at 400 rpm for 15 minutes at room temperature and then subsequently aspirated and counted in a scintillation counter.
Membranes expressing the GPCR6:Gsα-Fusion Protein (see Example 2) and for use in the direct identification of candidate compounds as inverse agonists, agonists or partial agonists were prepared as follows:
All materials were kept on ice throughout the procedure. Firstly, the media was aspirated from a confluent monolayer of cells, followed by rinse with 10 ml cold PBS, followed by aspiration. Thereafter, 5 ml of membrane Scrape Buffer was added to scrape cells; this was followed by transfer of cellular extract into 50 ml centrifuge tubes (centrifuged at 20,000 rpm for 17 minutes at 4° C.). Thereafter, the supernatant was aspirated and the pellet was resuspended in 30 ml Membrane Wash Buffer followed by centrifuge at 20,000 rpm for 17 minutes at 4° C. The supernatant was then aspirated and the pellet resuspended in Binding Buffer. This was then homogenized using a Brinkman polytron™ homogenizer (15-20 second bursts until the all material was in suspension). This is referred to herein as “Membrane Protein”.
Candidate compounds (Tripos, Inc., St. Louis, Mo.) were received in 96-well plates (these can be frozen at −80° C.). Membrane Protein (or membranes with expression vector excluding the GPR6:Gsα-Fusion Protein, as control), were homogenized briefly until in suspension. Protein concentration was then determined using the Bradford Protein Assay set forth above. […] Thereafter, 100 ul GDP Buffer was added to each well of a Wallac Scintistrip™ (Wallac). A 5 ul pin-tool was then used to transfer 5 ul of a candidate compound into such well (i.e., 5 ul in total assay volume of 200 ul is a 1:40 ratio such that the final screening concentration of the candidate compound is 10 uM). Again, to avoid contamination, after each transfer step the pin tool was rinsed in three reservoirs comprising water (1×), ethanol (1×) and water (2×)—excess liquid should be shaken from the tool after each rinse and dried with paper towels and kimwipes™. Thereafter, 50 ul of Membrane Protein was added to each well (a control well comprising membranes without the GPCR Fusion Protein is also utilized), and pre-incubated for 5-10 minutes at room temperature (the plates were covered with foil in that the candidate compounds obtained from Tripos are light sensitive). Thereafter, 50 ul of [^35S]GTPγS (0.6 nM) in Binding Buffer was added to each well, followed by incubation on a shaker for 60 minutes at room temperature (again, in this example, plates were covered with foil). The assay was then stopped by spinning of the plates at 4000 RPM for 15 minutes at 22° C. The plates were then aspirated with an 8 channel manifold and sealed with plastic plate covers. The plates were then read on a Wallac 1450 using setting “Prot. #37” (as per manufacturer instructions).
The initial or “primary” screen designed to directly identify, e.g., human GPR6 receptor inverse agonists, consisted of the membrane-based GTPγS binding assay of Example 4A utilizing membranes prepared from 293 stable cells. Candidate compounds directly identified as inhibiting receptor-mediated increases in GTPγS as set forth below were considered active “leads”.
It is preferred that following such direct identification, IC50 (inverse agonist) or EC50 (agonist) values be determined; those having ordinary skill in the art are credited with utilizing IC50 and EC50 assay protocols of choice. FIG. 4 provides a representative IC50 curve for compound ARE112 using the assay protocol of Example 4A.

GPR6 = target: T2, GPR6 (Homo sapiens, UniProt P46095); experiment: membrane-based cyclic AMP confirmation assay (Example 4C); type: biochemical; conditions: mean +/- standard deviation (number of assays in brackets); read-out: IC50 Values Cyclic AMP Assay Example 4C
T2 construct: expressed in transfected cells; 293 cells are used elsewhere
T2 sequence (P46095 whole entry): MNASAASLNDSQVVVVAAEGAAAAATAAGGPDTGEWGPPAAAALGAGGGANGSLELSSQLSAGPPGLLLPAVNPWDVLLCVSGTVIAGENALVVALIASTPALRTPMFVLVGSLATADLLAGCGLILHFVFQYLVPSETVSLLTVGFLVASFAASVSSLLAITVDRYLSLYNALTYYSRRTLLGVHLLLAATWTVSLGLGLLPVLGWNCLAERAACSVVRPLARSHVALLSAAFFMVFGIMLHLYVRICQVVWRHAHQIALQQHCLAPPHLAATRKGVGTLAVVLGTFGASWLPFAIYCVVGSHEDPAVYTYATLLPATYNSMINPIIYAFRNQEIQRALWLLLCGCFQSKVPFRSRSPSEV
From the text: Using an independent assay approach to provide confirmation of a directly identified candidate compound as set forth above, it is preferred that a confirmation assay then be utilized. In this case, the preferred confirmation assay is membrane-based cyclic AMP (cAMP) assay.
A modified Flash Plate™ Adenylyl Cyclase kit (New England Nuclear; Cat. No. SMP004A) was utilized for confirmation of candidate compounds directly identified as inverse agonists and agonists to endogenous, constitutively activated orphan GPCRs in accordance with the following protocol.
Transfected stable cells were harvested approximately three days after transfection. Membranes were prepared by homogenization of suspended cells in buffer containing 20 mM HEPES, pH 7.4 and 10 mM MgCl2. Homogenization was performed on ice using a Brinkman Polytron™ for approximately 10 seconds. The resulting homogenate was centrifuged at 20,000 rpm for 20 minutes at 4° C. The resulting pellet was then resuspended in buffer containing 20 mM HEPES, pH 7.4 and 0.1 mM EDTA, homogenized for 10 seconds, followed by centrifugation at 20,000 rpm for 20 minutes at 4° C. The resulting pellet can be stored at −80° C. until utilized. On the day of direct identification screening, the membrane pellet is slowly thawed at room temperature, resuspended in buffer containing 20 mM HEPES, pH 7.4, 100 mM NaCl and 10 mM MgCL2, to yield a final protein concentration of 0.60 mg/ml (the resuspended membranes are placed on ice until use).
Candidate compounds identified as per above (if frozen, thawed at room temperature) were added to plate wells (3 μl/well; 12 μM final assay concentration), together with 50 μl Membrane Protein (30 μg/well) and 50 μl of Assay Buffer. This admixture was then incubated for 30 minutes at room temperature, with gentle shaking.
Following the incubation, 100 μl of Detection Buffer was added to each well, followed by incubation for 2-20 hours. Plates were subsequently aspirated and then counted in a Wallac MicroBeta™ plate reader using “Prot. #31” (as per manufacturer instructions).

[1] = Food/water intake and body weight in 24-hour food deprived rats, oral gavage (PO); type: in vivo, rat; conditions: for body weight gain (FIG. 10C): vehicle about 19.5 grams
Method: Based upon the in vivo data developed, oral bioavailability of compound ARE112 was determined. The compound was administered by oral gavage at doses ranging from 6.75 to 54 mg/kg. The data presented in FIGS. 9A and 9B support the conclusion that oral administration of ARE112 also decreases food intake in both food-deprived and non-food deprived rats. […] In FIG. 9A, rats were deprived 24 hours prior to oral administration of the compound. In this assay, the vehicle-treated rats at 2.5 hours consumed […] of food while injected rats; particularly rats administered with 27 and 54 mg/kg of ARE 112, ate about 6 and 4 grams, respectively. […] (See, FIG. 9A).
Several other GPR6 inverse agonists were also assessed under 24-hour food deprived conditions, with PO administration. The analogs listed below were tested at 200 μmol/kg, which is equivalent to 54 mg/kg. In addition, ARE114 was also assessed at […]. Data are summarized below in Table C:
In a second assay, tested under the same conditions, several other analogs were assessed at 100 μmol/kg.
In FIG. 10, rats were deprived 24 hours prior to oral administration of the compound. In this assay, analogs ARE130, ARE135, ARE136, and ARE140, were administered at a dose of 100 μmol/kg. Three analogs, particularly, ARE130, ARE136 and ARE140 evidenced a slow intake of food (e.g., about 1 to 1.5 grams every two hours) over an eight hour period post-administration; while the vehicle rat consumed about 2 to 2.5 grams food every two hours. Similar to the vehicle rat, analog ARE135, an opened ring structure, evidenced that over an eight hour period post-administration the rats increasingly consumed about 2.5 grams every two hours. (See, FIG. 10A). Furthermore, the body weight of the vehicle rat and administered rats with analog ARE135 gained about 19.5 grams. On the other hand, the closed ring structures evidenced a decrease in body weight gain as follows: ARE112-6 grams, ARE130-9 grams, ARE136-11 grams and ARE140-14 grams. See, FIG. 10C.

[2] = mean +/- SD (number of assays), read-out: IC50 Values (Table E, GTP Assay of Example 4A)
[3] = mean +/- standard deviation (number of assays in brackets), read-out: IC50 Values GTP Assay Example 4A
[4] = 100 μmol/kg PO, second assay, Table D, vehicle 14.0
[5] = 100 μmol/kg PO, second assay, Table D, vehicle 19.25
[6] = 200 μmol/kg PO, Table C, vehicle 14.5
[7] = 200 μmol/kg PO, Table C, vehicle 20.3
[8] = 200 μmol/kg PO, Table C, vehicle 22.9

T1 sequence (P46095 with tags, fused parts or gaps): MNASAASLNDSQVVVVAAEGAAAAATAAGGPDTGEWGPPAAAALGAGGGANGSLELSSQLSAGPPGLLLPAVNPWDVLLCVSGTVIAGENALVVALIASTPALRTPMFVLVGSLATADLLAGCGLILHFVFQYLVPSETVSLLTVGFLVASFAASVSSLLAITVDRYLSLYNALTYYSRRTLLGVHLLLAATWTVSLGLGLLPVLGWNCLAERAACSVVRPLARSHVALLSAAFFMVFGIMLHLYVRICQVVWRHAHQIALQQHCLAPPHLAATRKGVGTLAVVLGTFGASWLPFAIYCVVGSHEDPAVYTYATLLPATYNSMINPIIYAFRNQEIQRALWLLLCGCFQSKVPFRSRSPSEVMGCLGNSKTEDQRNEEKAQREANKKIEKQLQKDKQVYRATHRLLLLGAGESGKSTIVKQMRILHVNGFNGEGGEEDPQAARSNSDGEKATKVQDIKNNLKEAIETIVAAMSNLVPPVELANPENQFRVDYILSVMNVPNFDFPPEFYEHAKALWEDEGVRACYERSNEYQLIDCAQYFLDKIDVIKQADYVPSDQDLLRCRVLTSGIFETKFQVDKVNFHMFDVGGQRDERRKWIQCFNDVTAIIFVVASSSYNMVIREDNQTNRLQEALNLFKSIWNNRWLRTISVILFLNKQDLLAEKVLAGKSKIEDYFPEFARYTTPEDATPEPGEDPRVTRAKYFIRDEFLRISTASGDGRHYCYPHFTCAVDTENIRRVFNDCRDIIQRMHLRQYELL

Row | SMILES | IC50 (GPR6:Gsα-Fusion Protein; [3]) | IC50 (GPR6) | other results
1 | O=C(NC(=S)N1CCNC1=S)c1ccc2ccccc2c1 [ARE135, N-(2-thioxo-imidazolidine-1-carbothioyl)-naphthyl-2-carboxamide] | 100 µM | 0.71 µM | IC50 (GPR6:Gsα-Fusion Protein; [2]): 100 µM; Cumulative Food Intake (g) (8 hr post administration) [1, 4]: 13.5 g; Body Weight Gain (g) (6 hr post administration) [1, 5]: 19.5 g; Cumulative Water Intake (g) (6 hr post administration) [1, 5]: 19.5 g; food intake every two hours ([1]; 100 μmol/kg oral, over eight hour period post-administration (FIG. 10A), vehicle about 2 to 2.5 grams): about 2.5 grams; water drunk (FIG. 10B) ([1]; 100 μmol/kg oral, comparable to vehicle): about 19 grams; body weight gain (FIG. 10C) ([1]; 100 μmol/kg oral): about 19.5 grams
2 | O=C(N=C1SSC2=NCCN21)c1cccc(F)c1 [ARE130, N-(5,6-dihydro-3H-imidazo[2,1-c]-1,2,4-dithiazol-3-ylidene)-3-fluorobenzamide] | 0.22 µM | 0.24 µM | IC50 (GPR6:Gsα-Fusion Protein; [2]): 0.22 µM; Cumulative Food Intake (g) (8 hr post administration) [1, 4]: 9.1 g; Body Weight Gain (g) (6 hr post administration) [1, 5]: 9.5 g; Cumulative Water Intake (g) (6 hr post administration) [1, 5]: 9.5 g; water drunk less than the vehicle animal (FIG. 10B) ([1]; 100 μmol/kg oral): about 10 grams; body weight gain (FIG. 10C) ([1]; 100 μmol/kg oral): 9 grams
3 | O=C(N=C1SSC2=NCCN21)c1ccccc1 [ARE114, N-(5,6-dihydro-3H-imidazo[2,1-c]-1,2,4-dithiazol-3-ylidene)-benzamide] | 0.44 µM | 0.17 µM | Cumulative Food Intake (g) (8 hr post administration) ([1]; 100 μmol/kg PO, Table C, vehicle 14.5): 10.8 g; Body Weight Gain (g) (6 hr post administration) ([1]; 100 μmol/kg PO, Table C, vehicle 20.3): 13.6 g; Cumulative Water Intake (g) (6 hr post administration) ([1]; 100 μmol/kg PO, Table C, vehicle 22.9): 15.3 g; Cumulative Food Intake (g) (8 hr post administration) [1, 6]: 8.68 g; Body Weight Gain (g) (6 hr post administration) [1, 7]: 6.18 g; Cumulative Water Intake (g) (6 hr post administration) [1, 8]: 10.6 g
4 | CC(C)(C)c1ccc(C(=O)N=C2SSC3=NCCN32)cc1 [ARE118, N-(5,6-dihydro-3H-imidazo[2,1-c]-1,2,4-dithiazol-3-ylidene)-4-tert-butylbenzamide] | 0.65 µM | 0.37 µM | 
5 | COc1ccc(C(=O)N=C2SSC3=NCCN32)cc1 [ARE122, N-(5,6-dihydro-3H-imidazo[2,1-c]-1,2,4-dithiazol-3-ylidene)-4-methoxybenzamide] | 0.83 µM | 0.21 µM | 
6 | O=C(NC(=S)N1CCNC1=S)c1ccc(F)cc1F [ARE133, N-(2-thioxo-imidazolidine-1-carbothioyl)-2,4-difluorobenzamide] | 0.11 µM | 0.17 µM | 
7 | O=C(N=C1SSC2=NCCN21)c1ccc(Cl)cc1 [ARE120, N-(5,6-dihydro-3H-imidazo[2,1-c]-1,2,4-dithiazol-3-ylidene)-4-chlorobenzamide] | 0.64 µM | 0.27 µM | Cumulative Food Intake (g) (8 hr post administration) [1, 6]: 9.88 g; Body Weight Gain (g) (6 hr post administration) [1, 7]: 11.4 g; Cumulative Water Intake (g) (6 hr post administration) [1, 8]: 18.5 g
8 | O=C(NC(=S)N1CCNC1=S)c1cccnc1 [ARE155, N-(2-thioxo-imidazolidine-1-carbothioyl)-pyridine-3-carboxamide] | 6.56 µM | 0.85 µM | 
9 | O=C(NC(=S)N1CCNC1=S)c1cccs1 [ARE111, N-(2-thioxo-imidazolidine-1-carbothioyl)-thiophene-2-carboxamide] | 2.79 µM | 1.96 µM | 

Further compounds by falling IC50 (GPR6:Gsα-Fusion Protein; [3]), results first:

Row | IC50 (GPR6:Gsα-Fusion Protein; [3]) | IC50 (GPR6) | SMILES | other results
10 | 3.19 µM | 2.62 µM | O=C(NC(=S)N1CCNC1=S)c1cccc(F)c1 [ARE129, N-(2-thioxo-imidazolidine-1-carbothioyl)-3-fluorobenzamide] | 
11 | 2.43 µM | 5.83 µM | O=C(NC(=S)N1CCNC1=S)c1ccon1 [ARE149, N-(2-thioxo-imidazolidine-1-carbothioyl)-isoxazole-3-carboxamide] | 
12 | 0.67 µM | 0.133 µM | O=C(N=C1SSC2=NCCN21)c1cccnc1 [ARE156, N-(5,6-dihydro-3H-imidazo[2,1-c]-1,2,4-dithiazol-3-ylidene)-pyridine-3-carboxamide] | 
13 | 0.41 µM | 0.19 µM | O=C(N=C1SSC2=NCCN21)c1ccc(F)cc1F [ARE134, N-(5,6-dihydro-3H-imidazo[2,1-c]-1,2,4-dithiazol-3-ylidene)-2,4-difluorobenzamide] | 
14 | 0.25 µM | 0.11 µM | O=C(N=C1SSC2=NCCN21)c1ccco1 [ARE144, N-(5,6dihydro-3H-imidazo[2,1-c]-1,2,4-dithiazol-3-ylidene)furan-2-carboxamide] | 
